# Where two headings read alike, the source gives them in different places.
# What was measured:
# SARS-CoV-2 M^pro = SARS-CoV-2 M^pro (Severe acute respiratory syndrome coronavirus 2 (2019-nCoV) (SARS-CoV-2), UniProt P0DTD1); assay: biochemical
# SARS-CoV-2 = assay: microbe, parasite or virus in culture; type: cell-based
# Vero E6 cells = assay: Cytotoxicity in Vero E6 cells (neutral red uptake); details: read-out: CC50 in Vero E6 cells
# in vitro = details: African green monkey, Vero E6 Cytotoxicity CC50 (μM)
# [1] = Severe acute respiratory syndrome coronavirus 2, Vero C1008; read-out: SARS-COV-2 antiviral activity using immunofluorescence assay EC50
# [2] = read-out: IC50 against SARS-CoV-2 M^pro
# [3] = read-out: SARS-COV-2 main protease enzymatic inhibition IC50
# [4] = Severe acute respiratory syndrome coronavirus 2, Vero C1008; Vero E6 cells, immunofluorescence assay; read-out: SARS-CoV-2 antiviral assay EC50
# [5] = Severe acute respiratory syndrome coronavirus 2, Vero C1008; read-out: antiviral EC50 against SARS-CoV-2 in Vero E6 cells
# [6] = SARS-COV-2 main protease enzymatic inhibition IC50
# [7] = read-out: SARS-CoV-2 M^pro IC50
smiles,measurement,setting,value
"C[C@H](NC(=O)C(c1cccnc1)N(C(=O)c1ccco1)c1ccc(-c2ccccc2)cc1)c1ccccc1 (single isomer, unassigned) [Compound 23S]",IC50,SARS-CoV-2 M^pro; IC50 against SARS-CoV-2 M^pro,> 10 µM
same,IC50,SARS-CoV-2 M^pro; SARS-CoV-2 M^pro IC50 (μM),> 10 µM
"C[C@H](NC(=O)C(c1cccnc1)N(C(=O)c1ccco1)c1ccc(-c2ccccc2)cc1)c1ccccc1 (single isomer, unassigned) [Jun8-76-3B]",EC50,SARS-CoV-2; [1],2.97 µM
same,EC50,"SARS-CoV-2 M^pro; SARS-COV-2 main protease enzymatic inhibition (separated diastereomers, printed as EC50)",1.35 µM
C[C@H](NC(=O)C(c1cccnc1)N(C(=O)c1ccno1)c1ccc(-c2ccccc2)cc1)c1ccccc1 (stereo partly shown) [Compound 25],CC50,Vero E6 cells,> 100 µM
same,IC50,SARS-CoV-2 M^pro; [2],2.47 ± 0.27 µM
CC(C)(C)NC(=O)C(c1cnccn1)N(C(=O)c1ccco1)c1ccc(C(C)(C)C)cc1 (stereo not shown) [Compound 27],CC50,Vero E6 cells,> 100 µM
C[C@H](NC(=O)C(c1cccnc1)N(C(=O)c1ccno1)c1ccc(C2CCCCC2)cc1)c1ccccc1 (stereo partly shown) [Compound 36],IC50,SARS-CoV-2 M^pro; [2],0.81 ± 0.24 µM
O=C(NCC(c1ccccc1)c1ccccc1)C(c1cccnc1)N(C(=O)c1ccco1)c1ccc(-c2ccccc2)cc1 (stereo not shown) [Compound 39],CC50,Vero E6 cells,> 100 µM
same,IC50,SARS-CoV-2 M^pro; IC50 against SARS-CoV-2 M^pro,< 5 µM
C[C@H](NC(=O)C(c1cccnc1)N(C(=O)c1ccco1)c1ccc(C(C)(C)C)cc1)c1ccccc1 (stereo partly shown) [Jun8-56-1],EC50,SARS-CoV-2; [1],17.2 µM
same,IC50,SARS-CoV-2 M^pro; [3],5.7 µM
CC(C)(C)c1ccc(N(C(=O)c2ccco2)C(C(=O)NC2CC2)c2cccnc2)cc1 (stereo not shown) [Jun8-58-2],IC50,SARS-CoV-2 M^pro; [3],3.86 µM
C[C@H](NC(=O)C(c1cccnc1)N(C(=O)c1ccco1)c1ccc(C2CCCCC2)cc1)c1ccccc1 (stereo partly shown) [Jun8-66-1],IC50,SARS-CoV-2 M^pro; [3],0.51 µM
CC(C)(C)c1ccc(N(C(=O)c2ccco2)C(C(=O)NCn2nnc3ccccc32)c2cccnc2)cc1 (stereo not shown) [Jun8-74-1],IC50,SARS-CoV-2 M^pro; [3],8.13 µM
C[C@H](NC(=O)C(c1cccnc1)N(C(=O)c1ccco1)c1ccc([Si](C)(C)C)cc1)c1ccccc1 (stereo partly shown) [Jun8-75-2],EC50,"SARS-CoV-2; Severe acute respiratory syndrome coronavirus 2, Vero C1008, read-out: SARS-COV-2 antiviral activity using immunofluorescence assay EC50",8.84 µM
same,IC50,SARS-CoV-2 M^pro; [3],1.97 µM
C[C@H](NC(=O)C(c1cccnc1)N(C(=O)c1ccco1)c1ccc(-c2ccccc2)cc1)c1ccccc1 (stereo partly shown) [Jun8-76-3],CC50,Vero E6 cells,> 100 µM
same,EC50,SARS-CoV-2; [4],1.61 ± 0.29 µM
same,EC50,SARS-CoV-2; [1],1.83 µM
same,EC50,SARS-CoV-2; [5],0.82 to 4.54 µM
same,CC50 at 5 days,in vitro,> 200 µM
same,IC50,SARS-CoV-2 M^pro; IC50 against SARS-CoV-2 M^pro,< 3 µM
same,IC50,SARS-CoV-2 M^pro; [6],0.31 µM
same,IC50,SARS-CoV-2 M^pro; SARS-CoV-2 M^pro IC50 (μM),0.31 ± 0.13 µM
C[C@H](NC(=O)C(c1cccnc1)N(C(=O)c1ccco1)c1ccc(-n2cccc2)cc1)c1ccccc1 (stereo partly shown) [Jun8-76-5],CC50,Vero E6 cells,> 100 µM
same,Selectivity index SI CC50/EC50,SARS-CoV-2,>115.6
same,EC50,SARS-CoV-2; [4],1.73 ± 0.19 µM
same,EC50,SARS-CoV-2; [1],1.9 µM
same,EC50,SARS-CoV-2; [5],0.82 to 4.54 µM
same,CC50 at 5 days,in vitro,> 200 µM
same,IC50,SARS-CoV-2 M^pro; IC50 against SARS-CoV-2 M^pro,< 3 µM
same,IC50,SARS-CoV-2 M^pro; [3],0.94 µM
same,IC50,SARS-CoV-2 M^pro; [7],0.94 ± 0.33 µM
CC(C)NC(=O)C(c1cccnc1)N(C(=O)c1ccco1)c1ccc(C(C)(C)C)cc1 (stereo not shown) [Jun8-88-1],IC50,SARS-CoV-2 M^pro; [3],5.37 µM
CC(C)(C)c1ccc(N(C(=O)c2ccco2)C(C(=O)NC2CCCC2)c2cccnc2)cc1 (stereo not shown) [Jun8-88-2],EC50,SARS-CoV-2; [1],12.9 µM
same,IC50,SARS-CoV-2 M^pro; [3],2.51 µM
C[C@H](NC(=O)C(c1cccnc1)N(C(=O)c1c[nH]cn1)c1ccc(-c2ccccc2)cc1)c1ccccc1 (stereo partly shown) [Jun8-90-3],CC50,Vero E6 cells,> 100 µM
same,EC50,SARS-CoV-2; [5],0.82 to 4.54 µM
same,CC50 at 5 days,in vitro,129 ± 25.1 µM
same,IC50,SARS-CoV-2 M^pro; [7],0.96 ± 0.09 µM
C[C@H](NC(=O)C(c1cccnc1)N(C(=O)c1ccco1)c1ccc(-c2cccs2)cc1)c1ccccc1 (stereo partly shown) [Jun8-91-4],IC50,SARS-CoV-2 M^pro; [6],14.6 µM
C[C@H](NC(=O)C(c1cccnc1)N(C(=O)c1ccco1)c1ccc(-c2ccco2)cc1)c1ccccc1 (stereo partly shown) [Jun8-91-5],IC50,SARS-CoV-2 M^pro; [3],2.54 µM
C[C@H](NC(=O)C(c1cccnc1)N(C(=O)c1ccco1)c1ccc(-c2cnn(C)c2)cc1)c1ccccc1 (stereo partly shown) [Jun8-91-6],IC50,SARS-CoV-2 M^pro; [6],37.3 µM
C[C@H](NC(=O)C(c1cccnc1)N(C(=O)c1cnco1)c1ccc(-c2ccccc2)cc1)c1ccccc1 (stereo partly shown) [Jun8-92-2],IC50,SARS-CoV-2 M^pro; [3],4.99 µM
C[C@H](NC(=O)C(c1cccnc1)N(C(=O)c1ccco1)c1ccc(Cc2ccccc2)cc1)c1ccccc1 (stereo partly shown) [Jun8-92-4],IC50,SARS-CoV-2 M^pro; [3],35.1 µM
